In publication PMC11003968, “Identification of small molecules affecting the interaction between human hemoglobin and Staphylococcus aureus IsdB hemophore” (Scientific Reports, 2024):
Converted amounts (≈) assume the structure as drawn. “Also recorded” adds a separate entry of the source. Where two headings read alike, the source gives them in different places. Where a SMILES comes first, the peptide text is derived from it. The star is where a group is joined. Boc = CC(C)(C)OC(=O)*

Tests used:
Compound solubilisation = type: physicochemical; settings: for solubility (in words): solvent as stated in the sentence
Method: The commercial compounds were solubilized in aqueous solutions to reach a 50 mM concentration, taking advantage of the pH and concentration-solubility profile estimated by Chemicalize (https://chemicalize.com/ developed by ChemAxon). When the molecules resulted partially or completely insoluble, the pH was adjusted based on their estimated pH-solubility profiles using either HCl or NaOH concentrated stocks. A cycle of sonication with an ultrasonic bath (Bormac CE-5700, 41300303) was performed for those compounds that resulted insoluble after pH adjustment. If sonication was insufficient, compounds were also heated in a thermoblock at 60 °C for ten minutes. For the compounds that were still not soluble, D6-DMSO was added. For some compounds, complete solubilization required to decrease the concentration of the stock solution. In Table 2 are reported the compounds that required dilution and/or addition of DMSO for solubilization.
(§1) The in-house synthesized compounds were solubilized at 100 mM concentration in D6-DMSO. We indicated with an asterisk (*) the in-house synthesized compounds to distinguish them from the commercial ones. […]. Molecules that resulted partially or completely insoluble were subjected to the same procedure followed for the commercial molecules, except for pH adjustments. The compounds that were highly insoluble were produced as TRIS salts.

HbCO = HbCO (Homo sapiens, UniProt P68871+P69905); test: STD-NMR binding to Hb; settings: 20 µM Hb (heme), 25 °C; for quality of the peaks in the STD spectrum: 1 mM commercial compound; for binding to HbCO by STD-NMR (peaks in STD spectra): 1 mM compound
[1] = biological target: T1, IsdB:Hb complex (Y165A IsdB, oxyHb) (Homo sapiens, UniProt P68871+P69905); test: IsdB-based immunoassay for IsdB:Hb complex formation (screening of potential inhibitors); type: binding, Staphylococcus aureus IsdB; human Hb; settings: 30 µM oxyHb; for average percent of Hb bound to IsdB: commercial compounds at 1 mM, relative to negative control; for percentage of IsdB-bound Hb: in-house synthesized compounds at 1 mM
T1 construct: made in house
Method: Commercial and synthesized compounds were tested at 1 mM concentration.
Figure 6 Screening of the in silico identified compounds by the IsdB-based immunoassay. […] The lines at 100% and 50%, drawn as reference, were calculated from the absorbance signal at 450 nm measured on the negative control well (i.e. oxyHb incubated without the addition of compounds). Each measurement is the average of at least 2 replicates.
Each measurement is the average of at least two replicates. […] Color code indicates derivatives from a common parent compound indicated with the asterisk.

oxyHb = oxyHb (Homo sapiens, UniProt P68871+P69905); test: Effect of compounds on the oxyHb absorption spectrum (oxidation of oxyHb to metHb); type: biochemical; settings: 1 mM compound, 10 µM oxyHb, 4 °C
Method: Absorption spectra of the commercial compounds alone or in the presence of oxyHb were recorded with a microplate reader (TECAN Spark® 10 M) in a 384-well, UV-transparent microplate (Greiner UV-STAR® plate—781801). The compounds were diluted in binding buffer to a 2 mM concentration, and the pH of the solutions was adjusted in the range 6.5–7.5. Compounds were then tested at 1 mM concentration to assess for any absorbance around 450 nm that might interfere with the immunoassay. The effect of compounds on the oxyHb spectrum was assessed under the same conditions in the presence of 10 µM oxyHb. […] All the incubation steps were performed at 4 °C, as in the immunoassay. Spectra were subtracted from the contribution of the blank and the compound.
Absorption spectra of the compounds in solution were collected between 350 and 700 nm to exclude any interference with the determination of Hb oxidation (vide infra) and with the absorbance measurement at 450 nm of the immunoassay (Fig. S4). The absorption spectra of Hb solutions were collected in the Q bands region, between 450 and 650 nm, and compounds were added at a final concentration of 1 mM and incubated for 2 h at 4 °C, before the acquisition of the final spectrum (Fig. S5). These Hb absorption bands are sensitive to the redox status of the protein and thus allowed to ascertain whether the tested compounds interfere with the analysis by accelerating the oxidation of oxyHb to metHb, which in turn is susceptible to heme extraction by IsdB, thus introducing an artifact in the assay.

[2] = Stability of dissolved compound by NMR and liquid chromatography; type: physicochemical
Method: as §1

[3] = 50% D6-DMSO final concentration

With O=C(O)Cn1cc(-c2nnc(SCC(=O)Nc3ccc(C(=O)O)cc3)o2)c2ccccc21 [Compound C65] as the molecule, how does the “solubility (in words)” value (Compound solubilisation) read?
The value was “poorly soluble”.

For Cc1[nH]ncc1C(=O)NCc1cc(OC2CCNC2)ccn1 (centres unmarked) [Compound C41], which “quality of the peaks in the STD spectrum” value (HbCO) is on record?
The value was “very weak peaks”.

And the “binding to HbCO by STD-NMR (peaks in STD spectra)” value (from here on “binding to HbCO by STD-NMR”) (HbCO)?
The value was “gave peaks in the STD spectra; also recorded: only a methyl group was binding to Hb”.

And the “average percent of Hb bound to IsdB” value [1]?
The value was “lower than 55%”.

Which “oxidation of Hb upon a 2-h incubation” value (oxyHb) does the source give for CC(C)CC(NC(=O)C(Cc1ccccc1)NC(=O)CNC(=O)CNC(=O)OC(C)(C)C)C(=O)NC(CCCN=C(N)N)C(=O)O (centres unmarked) [Compound C28] (Boc-GGFLR-OH; configuration not given here) here?
Its value is “small effects”.

What about the “Stock H2O” value (Compound solubilisation; [3]) of the same molecule?
The value was 25 (50% D6-DMSO final concentration) mM.

Which “oxidation of Hb upon a 2-h incubation” value (oxyHb) does the source give for NC(=O)C1CCN(CC(O)COc2ccc(OCC(O)CN3CCC(C(N)=O)CC3)cc2)CC1 (centres unmarked) [Compound C12] here?
The value was “small effects”.

With O=C(CSc1nnc(-c2c[nH]c3ncccc23)o1)Nc1ccc(C(=O)O)cc1 [Compound C63] as the molecule, how does the “solubility (in words)” value (Compound solubilisation) read?
Its value is “poorly soluble”.

Which “quality of the peaks in the STD spectrum” value (HbCO) does the source give for COC(=O)c1[nH]n(-c2ccc(C(=O)O)cc2)c(=O)c1CCO [Compound C53] here?
The value was “very weak peaks”.

What about the “binding to HbCO by STD-NMR” value (HbCO) of the same molecule?
The value was “gave peaks in the STD spectra”.

And the “binding to HbCO by STD-NMR” value (HbCO; listed as C53*)?
The value was “confirmed binding to HbCO”.

And the “solubility (in words)” value (Compound solubilisation)?
Its value is “solubility issues”.

What about the “average percent of Hb bound to IsdB” value [1] of the same molecule?
The value was “lower than 55%”.

And the “percentage of IsdB-bound Hb” value [1]?
The value was “above 60%”.

Which results are given for NNC(=O)C(=NNc1ccccc1C(=O)NN)C(=O)NN [Compound C17]?
oxidation of Hb upon a 2-h incubation (oxyHb): small effects; Stock H2O (Compound solubilisation; [3]): 25 (50% D6-DMSO final concentration) mM

Which results are given for O=C(CSc1nnc(-c2c[nH]c3ccccc23)o1)Nc1ccc(C(=O)O)cc1 [Compound C35]?
stability by NMR and liquid chromatography ([2]; dissolved in D6-DMSO): stable; stability in solution ([2]; dissolved in alkaline aqueous solution): underwent a rearrangement; solubility (Compound solubilisation; aqueous buffer, kinetic from dmso stock, 50 mM HEPES buffer, pH 7.6, diluted from 100 mM DMSO stock, read-out: concentration at which the compound was soluble): 500 µM (≈ 197 µg/mL); solubility (in words) (Compound solubilisation): poorly soluble in water

With Cn1cc(-c2nnc(SCC(=O)Nc3ccc(C(=O)O)cc3)o2)c2ccccc21 [Compound C61] as the molecule, how does the “solubility (in words)” value (Compound solubilisation) read?
Its value is “poorly soluble”.

What does the source list for NC(=O)NC(=O)CCCSc1nnc(N)s1 [Compound C44]?
quality of the peaks in the STD spectrum (HbCO): very weak peaks; binding to HbCO by STD-NMR (peaks in STD spectra) (HbCO): gave peaks in the STD spectra; Stock H2O (Compound solubilisation; [3]): 44 (50% D6-DMSO final concentration) mM; solubility (in words) (Compound solubilisation): solubility issues; solubility (in words) (Compound solubilisation; listed as C44*): difficult to dissolve in DMSO; average percent of Hb bound to IsdB [1]: lower than 55%; percentage of IsdB-bound Hb [1]: above 60%

With NC(=O)COc1ccc(CNC2CCCN(c3cccnn3)C2)cc1 (centres unmarked) [Compound C50] as the molecule, how does the “binding to HbCO by STD-NMR” value (HbCO) read?
Its value is “no peaks were observed”.

What about the “average percent of Hb bound to IsdB” value [1] of the same molecule?
Its value is “lower than 55%”.

For NC(=O)Cn1cc(NC(=O)NC2CCC(O)CC2)cn1 (centres unmarked) [Compound C34], which “Stock H2O” value (Compound solubilisation) is on record?
Its value is 33 (50% D6-DMSO final concentration) mM.

For CC(C)(Sc1nnc(-c2c[nH]c3ccccc23)o1)C(=O)Nc1ccc(C(=O)O)cc1 [Compound C59], which “solubility (in words)” value (Compound solubilisation) is on record?
Its value is “poorly soluble”.
